Article PMC6769459, “Inhibition of Tyrosine-Phosphorylated STAT3 in Human Breast and Lung Cancer Cells by Manuka Honey is Mediated by Selective Antagonism of the IL-6 Receptor” (International Journal of Molecular Sciences, 2019)
Where “and” joins values, the source holds several entries; their conditions need not be identical. Identical values can stand only once. Entries after “also recorded” stand apart in the source; their conditions may differ.

Legend:
[1] = test system: p-STAT3 in human bladder cancer cells; set-up: method as in PMID 29805643; settings: 40–80 μM, mostly after 24 h; cited from earlier work
[2] = test system: p-STAT3 in MDA-MB-231 cells; assay: Western blot of p-STAT3 / total STAT3 in MDA-MB-231 cells; format: cell-based, human; settings: for IC50: Homo sapiens, MDA-MB-231, 1 h, MDA-MB-231, 1 h treatment, densitometry of Western blots, approximate, read-out: IC50 for inhibition of p-STAT3 levels
Procedure: The expression of different proteins involved in IL-6 signaling pathway was analyzed by Western blots, as previously described. Briefly, MDA-MB-231 or A549 cells (2 × 10^6 cells/well) were seeded overnight in DMEM/RPMI plus 2% FBS, followed by incubation with MH or sugar control (SC) in 5% FBS-DMEM/RPMI for different times, as indicated in the figures. In some studies, we investigated the effect of treatment with different flavonoid compounds on p-STAT3 expression using a range of doses (0.4–50 μM). In other experiments, we also studied the effect of incubating MDA-MB-231 cells in the presence of Brefeldin A (BFA; 1 mg/mL) alone or with 1% MH for 4 h on p-STAT3 levels. Cell extracts were prepared in RIPA buffer and subjected to Western blot analysis using antibodies (purchased from Cell Signaling Technology, Danvers, MA, USA) specific to total STAT3 (t-STAT3), tyrosine-phosphorylated (Tyr705) STAT3 (p-STAT3), gp130, JAK2, tyrosine-phosphorylated (Tyr1007/1008) JAK2 (p-JAK2), tyrosine-phosphorylated (Tyr416) Src family (p-Src), total Src, and β-actin. Densitometric analysis of the band intensity on the blots was done using ImageJ (National Institutes of Health, USA). We modeled the binding inhibition pharmacodynamics of p-STAT3 levels as standard drug-receptor interactions based on mass-action kinetics. Specifically, dose response was modelled as: Y=[L]/[L]+K where Y is the receptor occupancy, L is the ligand concentration, and K is a compound-specific association constant.
Statistical significance between control and treated groups was analyzed using the unpaired, two-tailed Student’s t-test, using the statistical program of GraphPad Prism version 6 software (San Diego, CA, USA). For multiple comparisons, we used ordinary two-way ANOVA (GraphPad Prism). Differences between the experimental groups were considered significant when p values were <0.05. Nonlinear regression best-fit curve analysis was used to determine the IC50 for p-STAT3 inhibition.

IL-6Rα = target: T1, IL-6Rα (Homo sapiens, UniProt P08887); assay: ELISA-based competitive binding assay, IL-6 binding to immobilized IL-6Rα
T1 construct: purchased R&D Systems
T1 sequence (P08887 20-355 limits assumed): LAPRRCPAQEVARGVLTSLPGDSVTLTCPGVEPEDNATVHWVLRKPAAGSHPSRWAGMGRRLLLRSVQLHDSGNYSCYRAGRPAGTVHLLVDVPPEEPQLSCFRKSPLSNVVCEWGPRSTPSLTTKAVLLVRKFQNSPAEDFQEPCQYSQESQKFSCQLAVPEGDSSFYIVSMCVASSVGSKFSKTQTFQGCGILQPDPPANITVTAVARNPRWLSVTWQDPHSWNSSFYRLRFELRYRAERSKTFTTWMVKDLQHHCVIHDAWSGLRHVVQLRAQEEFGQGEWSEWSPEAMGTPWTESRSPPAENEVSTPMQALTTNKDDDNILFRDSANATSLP
Procedure: We used an ELISA-based assay to determine if MH can bind to recombinant IL-6Rα, IL-8R, and IL-11Rα proteins (all purchased from R&D Systems; Minneapolis, MN, USA). IL-6Rα (2 μg/mL), IL-8R (0.5 μg/mL), or IL-11Rα (1 μg/mL) proteins were coated on 96-well plates by overnight incubation at 4 °C. The plates were then washed with PBS + 0.05% tween 20 and blocked with PBS containing 1% BSA for 1 h at room temperature. For competition assay, various concentrations of MH (0.03–3%) were added to recombinant receptor-coated plates and incubated for 1 h at room temperature. After thorough washing, recombinant IL-6, IL-8, or IL-11 cytokines were added (50 ng/mL) and incubated for 1 h at 37 °C. The plates were then thoroughly washed and biotin-conjugated mAbs to IL-6 (0.25 µg/mL), IL-8 (0.5 µg/mL) or IL-11 (0.5 µg/mL) were added for 1 h at room temperature. After another round of washing, HRP-conjugated streptavidin was added for 30 min, washed, and developed by adding 3,3′,5,5′-Tetramethylbenzidine (TMB) substrate for 10 min. Additionally, the potential effect of flavonoid compounds (luteolin, quercetin, galangin, and chrysin; dose range 0.5–50 μM) on binding to IL-6Rα was investigated in the same assay. The dose-response was modeled based on mass-action kinetic drug-response interactions.

[3] = test system: p-STAT3 in lung cancer cells; set-up: method as in PMID 25830055; settings: 66 μM, 12–24 h; cited from earlier work
[4] = test system: STAT3 in different types of cancer cells; set-up: method as in PMID 16651438, PMID 23145121, PMID 24525192, PMID 24998588, PMID 26527884; settings: different cancer cell types; cited from earlier work
[5] = 10-fold lower concentration (5 μM)

Structure (SMILES) | p-STAT3 [1] | IC50 [2] | inhibition of IL-6 binding to IL-6Rα (IL-6Rα; 50 μM flavonoid) [%] | inhibition of IL-6 binding to IL-6Rα (IL-6Rα; [5]) | p-STAT3 levels [3] | p-STAT3 levels ([2]; MDA-MB-231, 4 h, Brefeldin A 1 mg/mL alone or with 1% MH) | concentration range at which inhibitory effects were observed [4] [µM] | binding to IL-6Rα (IL-6Rα; up to 50 μM)
O=c1cc(-c2ccccc2)oc2cc(O)cc(O)c12 [chrysin] | inhibit p-STAT3 | ~7.7 µM and 2 µg/mL | 31.8 | decreased but significant inhibition |  |  |  | 
O=c1c(O)c(-c2ccc(O)c(O)c2)oc2cc(O)cc(O)c12 [quercetin] |  | ~51 µM and 15.4 µg/mL | 29.2 | decreased but significant inhibition | reduce p-STAT3 levels |  |  | 
C[C@H]1CCC/C=C/[C@@H]2C[C@H](O)C[C@H]2[C@H](O)/C=C/C(=O)O1 [Brefeldin A] |  |  |  |  |  | significant loss |  | 
O=c1c(O)c(-c2ccccc2)oc2cc(O)cc(O)c12 [galangin] |  | ~4.4 µM and 1.2 µg/mL | 34.3 | decreased but significant inhibition |  |  |  | 
O=c1cc(-c2ccc(O)c(O)c2)oc2cc(O)cc(O)c12 [luteolin] |  | ~3.5 µM and 1 µg/mL | 22.4 |  |  |  | 20 to 50 | 
O=C1C[C@@H](c2ccccc2)Oc2cc(O)cc(O)c21 [pinocembrin] |  | ~70.2 µM and 18 µg/mL |  |  |  |  |  | no significant binding; also recorded: inability to detect any binding
